Test results reported in patent US12552766B2, “Pesticidally active azole amide compounds” (SYNGENTA CROP PROTECTION AG, priority 2019, dated 2026).

Assays:
Type in all cases: in vivo
[1] = test system: Spodoptera littoralis (Egyptian Cotton Leaf Worm); experiment: Example B9: Spodoptera littoralis, spray on cotton leaf discs; details: foliar, 72 h, application rate of 200 ppm, L1 larvae, 3 days after infestation, read-out: control in at least one of the three categories (mortality, anti-feedant effect, or growth inhibition)
Method: Cotton leaf discs were placed onto agar in 24-well microtiter plates and sprayed with aqueous test solutions prepared from 10′000 ppm DMSO stock solutions. After drying the leaf discs were infested with five L1 larvae. The samples were assessed for mortality, anti-feeding effect, and growth inhibition in comparison to untreated samples 3 days after infestation. Control of Spodoptera littoralis by a test sample is given when at least one of the categories mortality, anti-feedant effect, and growth inhibition is higher than the untreated sample.

[2] = test system: Plutella xylostella (Diamond Back Moth); experiment: Example B5: Plutella xylostella, artificial diet, 24-well; details: 192 h, application rate of 200 ppm, eggs, 8 days after infestation, read-out: control in at least one of the two categories (mortality or growth inhibition)
Method: 24-well microtiter plates with artificial diet were treated with aqueous test solutions prepared from 10′000 ppm DMSO stock solutions by pipetting. After drying, Plutella eggs were pipetted through a plastic stencil onto a gel blotting paper and the plate was closed with it. The samples were assessed for mortality and growth inhibition in comparison to untreated samples 8 days after infestation.

[3] = test system: Chilo suppressalis (Striped Rice Stemborer); experiment: Example B4: Chilo suppressalis, artificial diet; details: 144 h, application rate of 200 ppm, L2 larvae, 6 days after infestation, read-out: control in at least one of the three categories (mortality, anti-feedant effect, or growth inhibition)
Method: 24-well microtiter plates with artificial diet were treated with aqueous test solutions prepared from 10′000 ppm DMSO stock solutions by pipetting. After drying, the plates were infested with L2 larvae (6-8 per well). The samples were assessed for mortality, anti-feeding effect, and growth inhibition in comparison to untreated samples 6 days after infestation. Control of Chilo suppressalis by a test sample is given when at least one of the categories mortality, anti-feedant effect, and growth inhibition is higher than the untreated sample.

[4] = test system: Diabrotica Balteata (Corn Root Worm); experiment: Example B1: Diabrotica balteata, spray on maize sprouts; details: 96 h, application rate of 200 ppm, L2 larvae, 4 days after infestation, read-out: control in at least one of the two categories (mortality or growth inhibition)
Method: Maize sprouts placed onto an agar layer in 24-well microtiter plates were treated with aqueous test solutions prepared from 10′000 ppm DMSO stock solutions by spraying. After drying, the plates were infested with L2 larvae (6 to 10 per well). The samples were assessed for mortality and growth inhibition in comparison to untreated samples 4 days after infestation.

CC(NC(=O)c1cc(OCC(F)(F)F)cc(C(F)(F)F)c1)c1nc(Br)nn1-c1ccc(OCC(F)(F)F)cn1 (stereo not drawn) [Compound P39, N-[1-[5-bromo-2-[5-(2,2,2-trifluoroethoxy)-2-pyridyl]-1,2,4-triazol-3-yl]ethyl]-3-(2,2,2-trifluoroethoxy)-5-(trifluoromethyl) benzamide]
≥ 80%: percent control (mortality, anti-feedant effect or growth inhibition) at 200 ppm [1] | percent control (mortality or growth inhibition) at 200 ppm [2]

CC(NC(=O)c1cc(Cl)cc(C(F)(F)F)c1)c1nc(Br)nn1-c1ccc(OCC(F)(F)F)cn1 (stereo not drawn) [Compound P37, N-[1-[5-bromo-2-[5-(2,2,2-trifluoroethoxy)-2-pyridyl]-1,2,4-triazol-3-yl]ethyl]-3-chloro-5-(trifluoromethyl) benzamide]
≥ 80%: percent control (mortality, anti-feedant effect or growth inhibition) at 200 ppm [1] | percent control (mortality, anti-feedant effect or growth inhibition) at 200 ppm [3] | percent control (mortality or growth inhibition) at 200 ppm [2]

CC(NC(=O)c1cc(C(F)(F)F)cc(C(F)(F)F)c1)c1nc(Br)nn1-c1ncc(OC(F)F)cn1 (stereo not drawn) [Compound P2, N-[1-[5-bromo-2-[5-(difluoromethoxy)pyrimidin-2-yl]-1,2,4-triazol-3-yl]ethyl]-3,5-bis(trifluoromethyl) benzamide]
≥ 80%: percent control (mortality or growth inhibition) at 200 ppm [4] | percent control (mortality, anti-feedant effect or growth inhibition) at 200 ppm [1] | percent control (mortality, anti-feedant effect or growth inhibition) at 200 ppm [3] | percent control (mortality or growth inhibition) at 200 ppm [2]

CC(NC(=O)c1cc(C(F)(F)F)cc(C(F)(F)F)c1)c1nc(Br)nn1-c1ccc(OC(F)F)cn1 (stereo not drawn) [Compound P6, N-[1-[5-bromo-2-[5-(difluoromethoxy)-2-pyridyl]-1,2,4-triazol-3-yl]ethyl]-3,5-bis(trifluoromethyl) benzamide]
≥ 80%: percent control (mortality or growth inhibition) at 200 ppm [4] | percent control (mortality, anti-feedant effect or growth inhibition) at 200 ppm [1] | percent control (mortality, anti-feedant effect or growth inhibition) at 200 ppm [3] | percent control (mortality or growth inhibition) at 200 ppm [2]

CC(NC(=O)c1cc(C(F)(F)F)cc(C(F)(F)F)c1)c1nc(C#N)nn1-c1ccc(C#N)cn1 (stereo not drawn) [Compound P48, N-[1-[5-cyano-2-(5-cyano-2-pyridyl)-1,2,4-triazol-3-yl]ethyl]-3,5-bis(trifluoromethyl) benzamide]
≥ 80%: percent control (mortality or growth inhibition) at 200 ppm [4] | percent control (mortality, anti-feedant effect or growth inhibition) at 200 ppm [1] | percent control (mortality, anti-feedant effect or growth inhibition) at 200 ppm [3]

CC(NC(=O)c1cc(OCC(F)F)cc(C(F)(F)F)c1)c1nc(Br)nn1-c1ccc(C#N)cn1 (stereo not drawn) [Compound P33, N-[1-[5-bromo-2-(5-cyano-2-pyridyl)-1,2,4-triazol-3-yl]ethyl]-3-(2,2-difluoroethoxy)-5-(trifluoromethyl)benzamide]
≥ 80%: percent control (mortality, anti-feedant effect or growth inhibition) at 200 ppm [1] | percent control (mortality, anti-feedant effect or growth inhibition) at 200 ppm [3] | percent control (mortality or growth inhibition) at 200 ppm [2]

CC(NC(=O)c1cc(OC(F)(F)F)cc(C(F)(F)F)c1)c1nc(Br)nn1-c1ncc(OCC(F)F)cn1 (stereo not drawn) [Compound P22, N-[1-[5-bromo-2-[5-(2,2-difluoroethoxy)pyrimidin-2-yl]-1,2,4-triazol-3-yl]ethyl]-3-(trifluoromethoxy)-5-(trifluoromethyl) benzamide]
≥ 80%: percent control (mortality or growth inhibition) at 200 ppm [4] | percent control (mortality, anti-feedant effect or growth inhibition) at 200 ppm [1] | percent control (mortality, anti-feedant effect or growth inhibition) at 200 ppm [3] | percent control (mortality or growth inhibition) at 200 ppm [2]

CC(NC(=O)c1cc(Br)cc(C(F)(F)F)c1)c1nc(Br)nn1-c1ccc(OCC(F)(F)F)cn1 (stereo not drawn) [Compound P50, 3-bromo-N-[1-[5-bromo-2-[5-(2,2,2-trifluoroethoxy)-2-pyridyl]-1,2,4-triazol-3-yl]ethyl]-5-(trifluoromethyl) benzamide]
≥ 80%: percent control (mortality, anti-feedant effect or growth inhibition) at 200 ppm [3] | percent control (mortality or growth inhibition) at 200 ppm [2]

CC(NC(=O)c1cc(OC(F)F)cc(C(F)(F)F)c1)c1nc(Br)nn1-c1ccc(C#N)cn1 (stereo not drawn) [Compound P10, N-[1-[5-bromo-2-(5-cyano-2-pyridyl)-1,2,4-triazol-3-yl]ethyl]-3-(difluoromethoxy)-5-(trifluoromethyl)benzamide]
≥ 80%: percent control (mortality or growth inhibition) at 200 ppm [4] | percent control (mortality, anti-feedant effect or growth inhibition) at 200 ppm [1] | percent control (mortality, anti-feedant effect or growth inhibition) at 200 ppm [3] | percent control (mortality or growth inhibition) at 200 ppm [2]

CC(NC(=O)c1cc(OC(F)(F)F)cc(C(F)(F)F)c1)c1nc(Br)nn1-c1ccc(C#N)cn1 (stereo not drawn) [Compound P9, N-[1-[5-bromo-2-(5-cyano-2-pyridyl)-1,2,4-triazol-3-yl]ethyl]-3-(trifluoromethoxy)-5-(trifluoromethyl)benzamide]
≥ 80%: percent control (mortality or growth inhibition) at 200 ppm [4] | percent control (mortality, anti-feedant effect or growth inhibition) at 200 ppm [1] | percent control (mortality, anti-feedant effect or growth inhibition) at 200 ppm [3] | percent control (mortality or growth inhibition) at 200 ppm [2]

CC(NC(=O)c1cc(C(F)F)cc(C(F)(F)F)c1)c1nc(Br)nn1-c1ccc(OCC(F)(F)F)cn1 (stereo not drawn) [Compound P54, N-[1-[5-bromo-2-[5-(2,2,2-trifluoroethoxy)-2-pyridyl]-1,2,4-triazol-3-yl]ethyl]-3-(difluoromethyl)-5-(trifluoromethyl) benzamide]
≥ 80%: percent control (mortality or growth inhibition) at 200 ppm [4] | percent control (mortality, anti-feedant effect or growth inhibition) at 200 ppm [1] | percent control (mortality, anti-feedant effect or growth inhibition) at 200 ppm [3] | percent control (mortality or growth inhibition) at 200 ppm [2]

CC(NC(=O)c1cc(C(F)(F)F)cc(C(F)(F)F)c1)c1nc(Br)nn1-c1ncc(OCC(F)F)cn1 (stereo not drawn) [Compound P25, N-[1-[5-bromo-2-[5-(2,2-difluoroethoxy)pyrimidin-2-yl]-1,2,4-triazol-3-yl]ethyl]-3,5-bis(trifluoromethyl) benzamide]
≥ 80%: percent control (mortality or growth inhibition) at 200 ppm [4] | percent control (mortality, anti-feedant effect or growth inhibition) at 200 ppm [1] | percent control (mortality, anti-feedant effect or growth inhibition) at 200 ppm [3] | percent control (mortality or growth inhibition) at 200 ppm [2]

CC(NC(=O)c1cc(C(F)(F)F)cc(C(F)(F)F)c1)c1nc(-c2ncccn2)nn1-c1ccc(C#N)cn1 (stereo not drawn) [Compound P32, N-[1-[2-(5-cyano-2-pyridyl)-5-pyrimidin-2-yl-1,2,4-triazol-3-yl]ethyl]-3,5-bis(trifluoromethyl) benzamide]
≥ 80%: percent control (mortality or growth inhibition) at 200 ppm [4] | percent control (mortality, anti-feedant effect or growth inhibition) at 200 ppm [1] | percent control (mortality, anti-feedant effect or growth inhibition) at 200 ppm [3] | percent control (mortality or growth inhibition) at 200 ppm [2]

CC(NC(=O)c1cc(C(F)(F)F)cc(C(F)(F)F)c1)c1nc(Br)nn1-c1ccc(C#N)cn1 (stereo not drawn) [Compound P11, N-[1-[5-bromo-2-(5-cyano-2-pyridyl)-1,2,4-triazol-3-yl]ethyl]-3,5-bis(trifluoromethyl)benzamide]
≥ 80%: percent control (mortality or growth inhibition) at 200 ppm [4] | percent control (mortality, anti-feedant effect or growth inhibition) at 200 ppm [1] | percent control (mortality, anti-feedant effect or growth inhibition) at 200 ppm [3] | percent control (mortality or growth inhibition) at 200 ppm [2]

CC(NC(=O)c1cc(OC(F)F)cc(C(F)(F)F)c1)c1nc(Br)nn1-c1ccc(OC(F)F)cn1 (stereo not drawn) [Compound P7, N-[1-[5-bromo-2-[5-(difluoromethoxy)-2-pyridyl]-1,2,4-triazol-3-yl]ethyl]-3-(difluoromethoxy)-5-(trifluoromethyl) benzamide]
≥ 80%: percent control (mortality or growth inhibition) at 200 ppm [4] | percent control (mortality, anti-feedant effect or growth inhibition) at 200 ppm [1] | percent control (mortality, anti-feedant effect or growth inhibition) at 200 ppm [3] | percent control (mortality or growth inhibition) at 200 ppm [2]

CC(NC(=O)c1cc(OCC(F)(F)F)cc(C(F)(F)F)c1)c1nc(Br)nn1-c1ccc(OC(F)F)cn1 (stereo not drawn) [Compound P14, N-[1-[5-bromo-2-[5-(difluoromethoxy)-2-pyridyl]-1,2,4-triazol-3-yl]ethyl]-3-(2,2,2-trifluoroethoxy)-5-(trifluoromethyl) benzamide]
≥ 80%: percent control (mortality or growth inhibition) at 200 ppm [4] | percent control (mortality, anti-feedant effect or growth inhibition) at 200 ppm [1] | percent control (mortality, anti-feedant effect or growth inhibition) at 200 ppm [3] | percent control (mortality or growth inhibition) at 200 ppm [2]
